Laboratory results taken from US5336763A, “Trisazo dye and dye composition containing the same” (Orient Chemical Industries, Ltd., priority 1992, dated 1994).
Like-named read-outs stand apart in the source and are kept apart here.

System: strains TA98
Format: cell-based
Settings: for AMES evaluation: strains TA98
Method: Regarding various specimen solutions respectively containing trisazo dyes obtained in Examples 1 to 11 to the present invention and dyes of Comparative Examples 1 to 3, the number of mutant colonies was determined using strains TA98. 2. When the ratio is less than 2, it is "negative" and, when the ratio is more than 2, it is "positive", and the results are shown in Table. 1.

Row | Structure (SMILES) | Ames test: ratio of number of colonies to control (20 μg/plate, with S-9) | Ames test: ratio of number of colonies to control (20 μg/plate, without S-9) | Ames test: ratio of number of colonies to control (78 μg/plate, with S-9) | Ames test: ratio of number of colonies to control (78 μg/plate, without S-9) | Ames test: ratio of number of colonies to control (313 μg/plate, with S-9) | Ames test: ratio of number of colonies to control (313 μg/plate, without S-9) | Ames test: ratio of number of colonies to control (1250 μg/plate, with S-9) | Ames test: ratio of number of colonies to control (1250 μg/plate, without S-9) | Ames test: ratio of number of colonies to control (5000 μg/plate, with S-9) | Ames test: ratio of number of colonies to control (5000 μg/plate, without S-9) | AMES evaluation
1 | CCC(C)c1ccc(N=Nc2c(S(=O)(=O)O)cc3cc(S(=O)(=O)O)c(N=Nc4ccc(Oc5cccc(Oc6ccc(N=Nc7ccc(O)cc7O)cc6)c5)cc4)c(N)c3c2O)cc1 (stereo not drawn) [Ex. 3] | 1.32 | 0.76 | 1.79 | 0.86 | 1.59 | 0.86 | 0.76 | 1.10 | 0.56 | 0.95 | Negative (When the ratio is less than 2, it is "negative")
2 | Cc1cc(-c2ccc(N=Nc3c(S(=O)(=O)O)cc4cc(S(=O)(=O)O)c(N=Nc5ccc(S(=O)(=O)O)cc5)c(O)c4c3N)c(C)c2)ccc1N=Nc1ccc(O)cc1O [compound 3, reference compound] | 1.20 | 0.92 | 2.24 | 1.00 | 4.16 | 2.56 | 1.12 | 3.56 | 0.16 | 0.96 | Positive (when the ratio is more than 2, it is "positive")
3 | Nc1ccc(N=Nc2ccc(Oc3cccc(Oc4ccc(N=Nc5cc(S(=O)(=O)O)c6cc(S(=O)(=O)O)c(N=Nc7ccccc7)c(O)c6c5N)cc4)c3)cc2)c(O)c1 [Ex. 9] | 1.05 | 0.85 | 1.00 | 0.65 | 1.16 | 0.75 | 1.00 | 0.60 | 0.53 | 1.15 | Negative (When the ratio is less than 2, it is "negative")
4 | Nc1ccc(N=Nc2ccc(Oc3cccc(Oc4ccc(N=Nc5c(S(=O)(=O)O)cc6cc(S(=O)(=O)O)c(N=Nc7ccccc7)c(O)c6c5N)cc4)c3)cc2)c(O)c1 [Ex. 1] | 1.13 | 0.76 | 0.94 | 0.86 | 1.06 | 0.86 | 0.53 | 0.76 | 0.59 | 0.71 | Negative (When the ratio is less than 2, it is "negative")
5 | Cc1cc(-c2ccc(N=Nc3c(S(=O)(=O)O)cc4cc(S(=O)(=O)O)c(N=Nc5ccccc5)c(O)c4c3N)c(C)c2)ccc1N=Nc1ccc(N)cc1N [compound 1, reference compound] | 1.92 | 0.72 | 2.35 | 0.68 | 2.50 | 0.84 | 1.50 | 0.76 | 0.85 | 0.96 | Positive (when the ratio is more than 2, it is "positive")
6 | Cc1ccccc1N=Nc1c(S(=O)(=O)O)cc2cc(S(=O)(=O)O)c(N=Nc3ccc(Oc4ccc(Oc5ccc(N=Nc6ccc(O)cc6O)cc5)cc4)cc3)c(N)c2c1O [Ex. 7] | 0.94 | 0.95 | 0.89 | 1.00 | 1.00 | 0.80 | 1.05 | 0.80 | 1.05 | 1.00 | Negative (When the ratio is less than 2, it is "negative")
